From the NIST ThermoML archive (doi:10.1021/je300835h)
± gives the expanded uncertainty stated by the source. Values belong to the compound of their own block, whether it stands above or below them.

Conditions: Liquid, Ebulliometric method (Recirculating still)

vapor or sublimation pressure (390.65 K): 101.3 ± 1 kPa
SMILES: CCCCO [butan-1-ol]

vapor or sublimation pressure (337.75 K): 101.3 ± 1 kPa
SMILES: CO [methanol]

SMILES: C=COC(C)=O [vinyl acetate]
vapor or sublimation pressure (345.75 K): 101.3 ± 1 kPa
